Measured values from PubChem BioAssay (NCI).
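Five concentrations, 48 hours, 96-well plates. GI50 marks 50% less growth. The concentration for full growth arrest is given as TGI.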

Experiments:
Assay in all cases: NCI anticancer screen, dose series, 48 h
LOX IMVI melanoma = tested on: LOX IMVI melanoma
HOP-62 NSCLC = tested on: HOP-62 NSCLC
SK-MEL-2 melanoma = tested on: SK-MEL-2 melanoma
HCT-15 colon = tested on: HCT-15 colon
PC-3 prostate = tested on: PC-3 prostate
NCI-H23 lung = tested on: NCI-H23 lung
SN12C renal = tested on: SN12C renal
NCI/ADR-RES ovarian = tested on: NCI/ADR-RES ovarian
RXF 393 renal = tested on: RXF 393 renal
OVCAR-5 ovarian = tested on: OVCAR-5 ovarian

For COc1ccc(C(CC(=O)c2ccccc2)C(C(=O)c2ccccc2)C(c2ccc(OC)cc2)C2C(=O)NC(=S)NC2=O)cc1 (stereo not given), the GI50 (LOX IMVI melanoma) was 8.18 µM, the TGI (LOX IMVI melanoma) was 20.6 µM and the GI50 (HOP-62 NSCLC) was 21.1 µM. For the same molecule, the TGI (HOP-62 NSCLC) was over 100 µM, the GI50 (SK-MEL-2 melanoma) was 13.8 µM and the TGI (SK-MEL-2 melanoma) was 49 µM. The GI50 (HCT-15 colon) was 12.9 µM, the TGI (HCT-15 colon) was 37.2 µM and the GI50 (PC-3 prostate) was 5.61 µM. The TGI (PC-3 prostate) was over 100 µM, the GI50 (NCI-H23 lung) was 14.3 µM and the TGI (NCI-H23 lung) was 46.6 µM. For the same molecule, the GI50 (SN12C renal) was 12.8 µM, the TGI (SN12C renal) was 45.2 µM and the GI50 (NCI/ADR-RES ovarian) was 10.7 µM. The TGI (NCI/ADR-RES ovarian) was 34.1 µM, the GI50 (RXF 393 renal) was 18.2 µM and the TGI (RXF 393 renal) was over 100 µM. It also gave a GI50 (OVCAR-5 ovarian) of 13.9 µM and a TGI (OVCAR-5 ovarian) of 37.7 µM.
COc1cccc(/C(C)=N/NC(=O)CSc2nc3ccccc3c(=O)n2CCc2ccc(S(N)(=O)=O)cc2)c1 was tested, and the GI50 (LOX IMVI melanoma) was 3.1 µM, the TGI (LOX IMVI melanoma) was 11.7 µM and the GI50 (HOP-62 NSCLC) was 2.81 µM. It also gave a TGI (HOP-62 NSCLC) of 9.63 µM, a GI50 (SK-MEL-2 melanoma) of 3.42 µM and a TGI (SK-MEL-2 melanoma) of 16.3 µM. The GI50 (HCT-15 colon) was 18.4 µM, the TGI (HCT-15 colon) was over 100 µM and the GI50 (PC-3 prostate) was 3.51 µM. The TGI (PC-3 prostate) was 22.2 µM, the GI50 (NCI-H23 lung) was 2.86 µM and the TGI (NCI-H23 lung) was 8.47 µM. The GI50 (SN12C renal) was 4.52 µM, the TGI (SN12C renal) was 19.5 µM and the GI50 (NCI/ADR-RES ovarian) was 21.3 µM. It also gave a TGI (NCI/ADR-RES ovarian) of over 100 µM, a GI50 (RXF 393 renal) of 2.71 µM and a TGI (RXF 393 renal) of 7.7 µM. For the same molecule, the GI50 (OVCAR-5 ovarian) was 3.36 µM and the TGI (OVCAR-5 ovarian) was 21 µM.
Molecule Cc1ccc(-c2nc(-c3cn(C)c4ncccc34)cs2)cc1 has a GI50 (LOX IMVI melanoma) of 5.06 µM, a TGI (LOX IMVI melanoma) of 18.1 µM and a GI50 (HOP-62 NSCLC) of 7.71 µM. It also gave a TGI (HOP-62 NSCLC) of 22 µM, a GI50 (SK-MEL-2 melanoma) of 6.77 µM and a TGI (SK-MEL-2 melanoma) of 34 µM. It also gave a GI50 (HCT-15 colon) of 3.01 µM, a TGI (HCT-15 colon) of 21.3 µM and a GI50 (PC-3 prostate) of 4.49 µM. For the same molecule, the TGI (PC-3 prostate) was over 44.1 µM, the GI50 (NCI-H23 lung) was 7.12 µM and the TGI (NCI-H23 lung) was 31.3 µM. For the same molecule, the GI50 (SN12C renal) was 5 µM, the TGI (SN12C renal) was 22.8 µM and the GI50 (NCI/ADR-RES ovarian) was 1.42 µM. The TGI (NCI/ADR-RES ovarian) was 6.8 µM, the GI50 (RXF 393 renal) was 2.99 µM and the TGI (RXF 393 renal) was 13.7 µM. It also gave a GI50 (OVCAR-5 ovarian) of 7.78 µM and a TGI (OVCAR-5 ovarian) of 26.5 µM.
CN(C)c1ccc(C(c2ccc(Cl)cc2)c2ccc(N(C)C)cc2)cc1 was tested, and the TGI (LOX IMVI melanoma) was over 100 µM, the TGI (HOP-62 NSCLC) was over 100 µM and the TGI (SK-MEL-2 melanoma) was over 100 µM. The TGI (HCT-15 colon) was over 100 µM, the TGI (PC-3 prostate) was over 100 µM and the TGI (NCI-H23 lung) was over 100 µM. It also gave a TGI (SN12C renal) of over 100 µM, a TGI (NCI/ADR-RES ovarian) of over 100 µM and a TGI (RXF 393 renal) of over 100 µM. For the same molecule, the TGI (OVCAR-5 ovarian) was over 100 µM.
Work on CCS(=O)(=O)c1ccc(OC)c(Nc2ncc(-c3ccccc3Cl)o2)c1 yielded a GI50 (LOX IMVI melanoma) of 9.15 µM, a TGI (LOX IMVI melanoma) of over 25 µM and a GI50 (HOP-62 NSCLC) of 10.1 µM. For the same molecule, the TGI (HOP-62 NSCLC) was over 25 µM, the GI50 (SK-MEL-2 melanoma) was 9.06 µM and the TGI (SK-MEL-2 melanoma) was over 21.6 µM. The GI50 (HCT-15 colon) was 9.01 µM, the TGI (HCT-15 colon) was over 25 µM and the GI50 (PC-3 prostate) was 11.4 µM. The TGI (PC-3 prostate) was over 25 µM, the GI50 (NCI-H23 lung) was 7.89 µM and the TGI (NCI-H23 lung) was over 25 µM. The GI50 (SN12C renal) was 14.9 µM, the TGI (SN12C renal) was over 25 µM and the GI50 (NCI/ADR-RES ovarian) was 8.03 µM. For the same molecule, the TGI (NCI/ADR-RES ovarian) was over 25 µM, the GI50 (RXF 393 renal) was 7.35 µM and the TGI (RXF 393 renal) was over 21.7 µM. The GI50 (OVCAR-5 ovarian) was 10.9 µM and the TGI (OVCAR-5 ovarian) was over 25 µM.
O=C(CC(=O)c1cccc(Cl)c1)c1cccc(Cl)c1 showed a GI50 (LOX IMVI melanoma) of 1.37 µM, a TGI (LOX IMVI melanoma) of over 100 µM and a GI50 (HOP-62 NSCLC) of 2.59 µM. It also gave a TGI (HOP-62 NSCLC) of over 100 µM, a GI50 (SK-MEL-2 melanoma) of 4.75 µM and a TGI (SK-MEL-2 melanoma) of over 100 µM. The GI50 (HCT-15 colon) was 1.86 µM, the TGI (HCT-15 colon) was over 100 µM and the GI50 (PC-3 prostate) was 2.41 µM. It also gave a TGI (PC-3 prostate) of over 100 µM, a GI50 (NCI-H23 lung) of 1.91 µM and a TGI (NCI-H23 lung) of over 100 µM. The GI50 (SN12C renal) was 2.38 µM, the TGI (SN12C renal) was over 100 µM and the GI50 (NCI/ADR-RES ovarian) was 2.06 µM. It also gave a TGI (NCI/ADR-RES ovarian) of 6.35 µM, a GI50 (RXF 393 renal) of 3.69 µM and a TGI (RXF 393 renal) of over 100 µM. It also gave a GI50 (OVCAR-5 ovarian) of 4.3 µM and a TGI (OVCAR-5 ovarian) of over 100 µM.
Work on N#CN1CC[C@H](C(=O)Nc2cc3cc(C(N)=O)ccc3cn2)C1 yielded a GI50 (LOX IMVI melanoma) of 0.117 µM, a TGI (LOX IMVI melanoma) of over 54.9 µM and a GI50 (HOP-62 NSCLC) of 0.172 µM. It also gave a TGI (HOP-62 NSCLC) of 3.5 µM, a GI50 (SK-MEL-2 melanoma) of 0.0266 µM and a TGI (SK-MEL-2 melanoma) of 0.107 µM. For the same molecule, the GI50 (HCT-15 colon) was 0.302 µM, the TGI (HCT-15 colon) was over 100 µM and the GI50 (PC-3 prostate) was 0.257 µM. For the same molecule, the TGI (PC-3 prostate) was 20.4 µM, the GI50 (NCI-H23 lung) was 0.13 µM and the TGI (NCI-H23 lung) was 2.05 µM. For the same molecule, the GI50 (SN12C renal) was 0.117 µM, the TGI (SN12C renal) was 46.7 µM and the GI50 (NCI/ADR-RES ovarian) was 0.192 µM. The TGI (NCI/ADR-RES ovarian) was over 100 µM, the GI50 (RXF 393 renal) was 0.0426 µM and the TGI (RXF 393 renal) was 0.21 µM. The GI50 (OVCAR-5 ovarian) was 0.51 µM and the TGI (OVCAR-5 ovarian) was over 68.4 µM.
Molecule CC(=O)OC1CC[C@@]2(C)C(CC[C@]3(C)C2CC=C2[C@@H]4C(C)[C@H](C)CCC4(C)CCC23C)[C@@]1(C)C(=O)O (stereo not given in full) has a TGI (LOX IMVI melanoma) of 51.7 µM, a TGI (HOP-62 NSCLC) of 43.1 µM and a TGI (SK-MEL-2 melanoma) of 50.2 µM. The TGI (HCT-15 colon) was 43.2 µM, the TGI (PC-3 prostate) was 31.8 µM and the TGI (NCI-H23 lung) was 51.6 µM. It also gave a TGI (SN12C renal) of 53.2 µM, a TGI (NCI/ADR-RES ovarian) of 45 µM and a TGI (RXF 393 renal) of 49.4 µM. It also gave a TGI (OVCAR-5 ovarian) of 33.3 µM.
Cc1cc(Cl)ccc1Nc1nc(C(F)(F)F)ccc1C(=O)N/N=C/c1ccccc1Cl showed a GI50 (LOX IMVI melanoma) of 0.53 µM, a TGI (LOX IMVI melanoma) of 2.94 µM and a GI50 (HOP-62 NSCLC) of 0.836 µM. For the same molecule, the TGI (HOP-62 NSCLC) was 2.72 µM, the GI50 (SK-MEL-2 melanoma) was 3.22 µM and the TGI (SK-MEL-2 melanoma) was 18.8 µM. It also gave a GI50 (HCT-15 colon) of 0.438 µM, a TGI (HCT-15 colon) of 16.5 µM and a GI50 (PC-3 prostate) of 0.866 µM. The TGI (PC-3 prostate) was over 26 µM, the GI50 (NCI-H23 lung) was 0.775 µM and the TGI (NCI-H23 lung) was 4.89 µM. It also gave a GI50 (SN12C renal) of 1.45 µM, a TGI (SN12C renal) of over 54.3 µM and a GI50 (NCI/ADR-RES ovarian) of 1.19 µM. For the same molecule, the TGI (NCI/ADR-RES ovarian) was 7.16 µM, the GI50 (RXF 393 renal) was 1.48 µM and the TGI (RXF 393 renal) was 4.41 µM. It also gave a GI50 (OVCAR-5 ovarian) of 1.65 µM and a TGI (OVCAR-5 ovarian) of 11.1 µM.
For O=c1oc2ccc(-c3ccc(F)cc3F)cc2c(=O)n1-c1ccc(Cl)c(C(F)(F)F)c1, the GI50 (LOX IMVI melanoma) was 2.18 µM, the TGI (LOX IMVI melanoma) was 4.91 µM and the GI50 (HOP-62 NSCLC) was 1.93 µM. The TGI (HOP-62 NSCLC) was 4.09 µM, the GI50 (SK-MEL-2 melanoma) was 1.99 µM and the TGI (SK-MEL-2 melanoma) was 4.76 µM. The GI50 (HCT-15 colon) was 2.04 µM, the TGI (HCT-15 colon) was 8.19 µM and the GI50 (PC-3 prostate) was 2.95 µM. The TGI (PC-3 prostate) was 35.8 µM, the GI50 (NCI-H23 lung) was 1.83 µM and the TGI (NCI-H23 lung) was 4.59 µM. The GI50 (SN12C renal) was 2.6 µM, the TGI (SN12C renal) was 11.7 µM and the GI50 (NCI/ADR-RES ovarian) was 2.49 µM. For the same molecule, the TGI (NCI/ADR-RES ovarian) was 8.89 µM, the GI50 (RXF 393 renal) was 1.7 µM and the TGI (RXF 393 renal) was 4.59 µM. For the same molecule, the GI50 (OVCAR-5 ovarian) was 4.31 µM and the TGI (OVCAR-5 ovarian) was over 100 µM.
Oc1[nH]c2ccccc2c1N=Nc1c(F)c(F)c(F)c(F)c1F gave a TGI (LOX IMVI melanoma) of over 66.7 µM, a TGI (HOP-62 NSCLC) of over 100 µM and a TGI (SK-MEL-2 melanoma) of over 100 µM. The TGI (HCT-15 colon) was over 100 µM, the TGI (PC-3 prostate) was over 100 µM and the TGI (NCI-H23 lung) was over 100 µM. The TGI (SN12C renal) was over 55.7 µM, the TGI (NCI/ADR-RES ovarian) was over 100 µM and the TGI (RXF 393 renal) was over 100 µM. It also gave a TGI (OVCAR-5 ovarian) of over 100 µM.
